Reference: patent US11447503B2, “Pyridine carbamates and their use as GLUN2B receptor modulators” (JANSSEN PHARMACEUTICA NV, priority 2019, dated 2022)

What follows are molecules tested against human GluN1/GluN2B NMDA receptors (Homo sapiens, UniProt Q05586+Q13224) (assay: Cell-based calcium flux (FLIPR) assay on cloned human GluN1/GluN2B ion channels expressed in mammalian cells). Settings: standard assay; glutamate ~EC40, 10 μM glycine; stable Tet-On cell line.
Chain of human GluN1/GluN2B NMDA receptors (Q13224 27-1484, other chains not shown): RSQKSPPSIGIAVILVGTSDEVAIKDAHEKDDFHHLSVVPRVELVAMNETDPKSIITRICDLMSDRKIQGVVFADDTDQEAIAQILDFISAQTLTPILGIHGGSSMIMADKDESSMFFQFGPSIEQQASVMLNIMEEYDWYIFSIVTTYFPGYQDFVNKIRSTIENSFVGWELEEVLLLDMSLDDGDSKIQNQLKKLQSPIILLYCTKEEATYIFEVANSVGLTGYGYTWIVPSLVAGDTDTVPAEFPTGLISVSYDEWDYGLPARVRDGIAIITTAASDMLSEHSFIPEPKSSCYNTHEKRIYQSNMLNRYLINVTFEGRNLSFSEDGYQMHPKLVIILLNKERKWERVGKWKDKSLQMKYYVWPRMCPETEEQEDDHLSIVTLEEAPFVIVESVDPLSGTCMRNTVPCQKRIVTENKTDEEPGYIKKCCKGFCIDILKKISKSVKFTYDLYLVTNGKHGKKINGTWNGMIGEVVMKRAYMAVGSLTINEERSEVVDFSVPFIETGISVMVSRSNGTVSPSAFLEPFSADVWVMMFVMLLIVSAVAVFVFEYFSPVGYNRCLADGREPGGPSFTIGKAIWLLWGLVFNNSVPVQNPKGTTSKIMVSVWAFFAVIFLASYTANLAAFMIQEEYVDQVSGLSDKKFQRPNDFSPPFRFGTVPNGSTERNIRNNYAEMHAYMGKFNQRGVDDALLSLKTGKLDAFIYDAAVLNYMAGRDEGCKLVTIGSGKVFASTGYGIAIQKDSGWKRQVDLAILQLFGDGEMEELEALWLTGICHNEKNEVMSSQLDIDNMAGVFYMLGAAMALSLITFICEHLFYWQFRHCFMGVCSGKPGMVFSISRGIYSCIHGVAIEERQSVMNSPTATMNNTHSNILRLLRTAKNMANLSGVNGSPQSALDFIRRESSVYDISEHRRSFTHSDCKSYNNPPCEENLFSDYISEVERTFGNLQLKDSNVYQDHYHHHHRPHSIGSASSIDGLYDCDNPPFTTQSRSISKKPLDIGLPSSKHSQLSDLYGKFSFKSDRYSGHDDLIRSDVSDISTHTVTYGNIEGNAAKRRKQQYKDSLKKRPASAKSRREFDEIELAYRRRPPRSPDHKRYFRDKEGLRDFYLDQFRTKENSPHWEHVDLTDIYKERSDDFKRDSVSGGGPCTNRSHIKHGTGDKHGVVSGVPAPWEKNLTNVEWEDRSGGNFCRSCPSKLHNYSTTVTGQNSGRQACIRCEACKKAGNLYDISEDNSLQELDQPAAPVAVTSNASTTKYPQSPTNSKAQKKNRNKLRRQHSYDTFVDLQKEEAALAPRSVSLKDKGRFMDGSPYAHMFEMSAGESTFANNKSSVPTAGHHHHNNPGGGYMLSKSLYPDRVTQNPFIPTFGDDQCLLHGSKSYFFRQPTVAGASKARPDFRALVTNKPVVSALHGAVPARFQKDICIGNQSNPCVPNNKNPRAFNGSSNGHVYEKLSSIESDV
In short: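 Tet-On-induced stable cells expressing human GluN1/GluN2B, Calcium 5 dye. Compounds preincubated 5 min (agonist check), then glutamate at ~EC40 plus 10 μM glycine added for 5 min; Mg2+ and buffer composition differ between standard and HTS formats. FLIPR Tetra fluorescence normalised to control wells; (+)MK-801 as antagonist control.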
With Cc1ncc(-c2ccc(F)c(C(F)F)c2)cc1CN1CC2(CCC2)OC1=O [Example 91, 6-[[5-[3-(Difluoromethyl)-4-fluoro-phenyl]-2-methyl-3-pyridyl]methyl]-8-oxa-6-azaspiro[3.4]octan-7-one] the IC50 was 84 nM.
Cc1ncc(-c2ccc(F)c(C(F)F)c2)cc1CN1C[C@@H](C)OC1=O [Example 92, (5R)-3-[[5-[3-(Difluoromethyl)-4-fluoro-phenyl]-2-methyl-3-pyridyl]methyl]-5-methyl-oxazolidin-2-one] showed an IC50 of 63 nM.
In the case of Cc1ncc(-c2ccc(F)c(C(F)F)c2)cc1CN1CC(C)(C)OC1=O [Example 93, 3-[[5-[3-(Difluoromethyl)-4-fluoro-phenyl]-2-methyl-3-pyridyl]methyl]-5,5-dimethyl-oxazolidin-2-one], the IC50 was 526 nM.
For Cc1ncc(-c2ccc(F)c(C(F)F)c2)cc1CN1CC2(CC2)OC1=O [Example 96, 5-[[5-[3-(Difluoromethyl)-4-fluoro-phenyl]-2-methyl-3-pyridyl]methyl]-7-oxa-5-azaspiro[2.4]heptan-6-one], the IC50 was 31 nM.
In the case of Cc1ncc(-c2ccc(Cl)s2)cc1CN1CCOC1=O [Example 98, 3-[[5-(5-Chloro-2-thienyl)-2-methyl-3-pyridyl]methyl]oxazolidin-2-one], the IC50 was 187 nM.
For Cc1ncc(-c2ccc(C(F)(F)F)s2)cc1CN1CCOC1=O [Example 99, 3-[[2-Methyl-5-[5-(trifluoromethyl)-2-thienyl]-3-pyridyl]methyl]oxazolidin-2-one], the IC50 was 16 nM.
Cc1ncc(-c2ccc(C(F)F)s2)cc1CN1CCOC1=O [Example 100, 3-[[5-[5-(Difluoromethyl)-2-thienyl]-2-methyl-3-pyridyl]methyl]oxazolidin-2-one] gave an IC50 of 42 nM.
COc1ncc(-c2cccc(C(F)(F)F)c2)cc1CN1CCOC1=O [Example 101, 3-[[2-Methoxy-5-[3-(trifluoromethyl)phenyl]-3-pyridyl]methyl]oxazolidin-2-one] was tested, and the IC50 was 53 nM.
In the case of COc1ncc(-c2cc(F)c(F)c(F)c2)cc1CN1CCOC1=O [Example 102, 3-[[2-Methoxy-5-(3,4,5-trifluorophenyl)-3-pyridyl]methyl]oxazolidin-2-one], the IC50 was 172 nM.
Molecule COc1ncc(-c2ccc(F)c(C)c2F)cc1CN1CCOC1=O [Example 103, 3-[[5-(2,4-Difluoro-3-methyl-phenyl)-2-methoxy-3-pyridyl]methyl] oxazolidin-2-one] has an IC50 of 46 nM.
COc1ncc(-c2cc(C)cc(F)c2)cc1CN1CCOC1=O [Example 104, 3-[[5-(3-Fluoro-5-methyl-phenyl)-2-methoxy-3-pyridyl]methyl]oxazolidin-2-one] gave an IC50 of 159 nM.
With COc1ncc(-c2cccc(C)c2)cc1CN1CCOC1=O [Example 105, 3-[[2-Methoxy-5-(m-tolyl)-3-pyridyl]methyl]oxazolidin-2-one] the IC50 was 434 nM.
Work on COc1ncc(-c2ccc(Cl)c(Cl)c2)cc1CN1CCOC1=O [Example 106, 3-[[5-(3,4-Dichlorophenyl)-2-methoxy-3-pyridyl]methyl]oxazolidin-2-one] yielded an IC50 of 33 nM.
COc1ncc(-c2ccc(Cl)c(OC(F)F)c2)cc1CN1CCOC1=O [Example 107, 3-[[5-[4-Chloro-3-(difluoromethoxy)phenyl]-2-methoxy-3-pyridyl]methyl]oxazolidin-2-one] gave an IC50 of 11 nM.
For COc1ncc(-c2ccc(F)c(Cl)c2)cc1CN1CCOC1=O [Example 108, 3-[[5-(3-Chloro-4-fluoro-phenyl)-2-methoxy-3-pyridyl]methyl]oxazolidin-2-one], the IC50 was 32 nM.
Molecule COc1ncc(-c2cccc(Cl)c2)cc1CN1CCOC1=O [Example 109, 3-[[5-(3-Chlorophenyl)-2-methoxy-3-pyridyl]methyl]oxazolidin-2-one] has an IC50 of 477 nM.
COc1ncc(-c2ccc(F)c(C(C)(F)F)c2)cc1CN1CCOC1=O [Example 110, 3-[[5-[3-(1,1-Difluoroethyl)-4-fluoro-phenyl]-2-methoxy-3-pyridyl]methyl]oxazolidin-2-one] gave an IC50 of 37 nM.
For COc1ncc(-c2cccc(C(C)(F)F)c2)cc1CN1CCOC1=O [Example 111, 3-[[5-[3-(1,1-Difluoroethyl)phenyl]-2-methoxy-3-pyridyl]methyl]oxazolidin-2-one], the IC50 was 47 nM.
In the case of COc1ncc(-c2cc(C)c(F)c(F)c2)cc1CN1CCOC1=O [Example 112, 3-[[5-(3,4-Difluoro-5-methyl-phenyl)-2-methoxy-3-pyridyl]methyl] oxazolidin-2-one], the IC50 was 18 nM.
In the case of COc1ncc(-c2ccc(F)c(OC(F)(F)F)c2)cc1CN1CCOC1=O [Example 113, 3-[[5-[4-Fluoro-3-(trifluoromethoxy)phenyl]-2-methoxy-3-pyridyl]methyl]oxazolidin-2-one], the IC50 was 13 nM.
For COc1ncc(-c2cc(F)cc(C)c2F)cc1CN1CCOC1=O [Example 114, 3-[[5-(2,5-Difluoro-3-methyl-phenyl)-2-methoxy-3-pyridyl]methyl] oxazolidin-2-one], the IC50 was 542 nM.
COc1ncc(-c2ccc(Cl)c(C(F)F)c2)cc1CN1CCOC1=O [Example 115, 3-[[5-[4-Chloro-3-(difluoromethyl)phenyl]-2-methoxy-3-pyridyl]methyl]oxazolidin-2-one] showed an IC50 of 10 nM.
COc1ncc(-c2ccc(F)c(C)c2)cc1CN1CCOC1=O [Example 116, 3-[[5-(4-Fluoro-3-methyl-phenyl)-2-methoxy-3-pyridyl]methyl]oxazolidin-2-one] showed an IC50 of 18 nM.
Work on COc1ncc(-c2ccc(F)c(OC(F)F)c2)cc1CN1C(=O)OC[C@@H]1C [Example 117, (4S)-3-[[5-[3-(Difluoromethoxy)-4-fluoro-phenyl]-2-methoxy-3-pyridyl]methyl]-4-methyl-oxazolidin-2-one] yielded an IC50 of 60 nM.
COc1ncc(-c2ccc(F)c(OC(F)F)c2)cc1CN1C(=O)OC[C@H]1C [Example 118, (4R)-3-[[5-[3-(Difluoromethoxy)-4-fluoro-phenyl]-2-methoxy-3-pyridyl]methyl]-4-methyl-oxazolidin-2-one] gave an IC50 of 26 nM.
In the case of COc1ncc(-c2ccc(F)c(OC(F)F)c2)cc1CN1CCOC1=O [Example 119, 3-[[5-[3-(Difluoromethoxy)-4-fluoro-phenyl]-2-methoxy-3-pyridyl]methyl]oxazolidin-2-one], the IC50 was 12 nM.
With COc1ncc(-c2ccc(F)c(C(F)F)c2)cc1CN1C(=O)OC[C@@H]1C [Example 120, (4S)-3-[[5-[3-(Difluoromethyl)-4-fluoro-phenyl]-2-methoxy-3-pyridyl]methyl]-4-methyl-oxazolidin-2-one] the IC50 was 121 nM.
For COc1ncc(-c2ccc(F)c(C(F)F)c2)cc1CN1C(=O)OC[C@H]1C [Example 121, (4R)-3-[[5-[3-(Difluoromethyl)-4-fluoro-phenyl]-2-methoxy-3-pyridyl]methyl]-4-methyl-oxazolidin-2-one], the IC50 was 21 nM.
With COc1ncc(-c2ccc(F)c(C(F)F)c2)cc1CN1CCOC1=O [Example 122, 3-[[5-[3-(Difluoromethyl)-4-fluoro-phenyl]-2-methoxy-3-pyridyl]methyl]oxazolidin-2-one] the IC50 was 15 nM.
In the case of O=C1OCCCN1Cc1cc(-c2ccc(F)c(C(F)F)c2)cnc1C(F)F [Example 123, 3-[[2-(Difluoromethyl)-5-[3-(difluoromethyl)-4-fluoro-phenyl]-3-pyridyl]methyl]-1,3-oxazinan-2-one], the IC50 was 63 nM.
In the case of O=C1OCCN1Cc1cc(-c2ccc(F)c(C(F)F)c2)cnc1C(F)F [Example 124, 3-[[2-(Difluoromethyl)-5-[3-(difluoromethyl)-4-fluoro-phenyl]-3-pyridyl]methyl]oxazolidin-2-one], the IC50 was 56 nM.
In the case of O=C1OCCN1Cc1cc(-c2ccc(F)c(OC(F)F)c2)cnc1C(F)F [Example 125, 3-[[5-[3-(Difluoromethoxy)-4-fluoro-phenyl]-2-(difluoromethyl)-3-pyridyl]methyl]oxazolidin-2-one], the IC50 was 39 nM.
For O=C1OCCCN1Cc1cc(-c2ccc(F)c(OC(F)F)c2)cnc1C(F)F [Example 126, 3-[[5-[3-(Difluoromethoxy)-4-fluoro-phenyl]-2-(difluoromethyl)-3-pyridyl]methyl]-1,3-oxazinan-2-one], the IC50 was 19 nM.
Molecule Cc1cc(-c2cnc(C(F)F)c(CN3CCCOC3=O)c2)ccc1F [Example 127, 3-[[2-(Difluoromethyl)-5-(4-fluoro-3-methyl-phenyl)-3-pyridyl]methyl]-1,3-oxazinan-2-one] has an IC50 of 276 nM.
Cc1cc(-c2cnc(C(F)F)c(CN3CCOC3=O)c2)ccc1F [Example 128, 3-[[2-(Difluoromethyl)-5-(4-fluoro-3-methyl-phenyl)-3-pyridyl]methyl]oxazolidin-2-one] gave an IC50 of 204 nM.
In the case of O=C1OCCCN1Cc1cc(-c2ccc(Cl)c(OC(F)F)c2)cnc1C(F)F [Example 129, 3-[[5-[4-Chloro-3-(difluoromethoxy)phenyl]-2-(difluoromethyl)-3-pyridyl]methyl]-1,3-oxazinan-2-one], the IC50 was 59 nM.
Work on O=C1OCCN1Cc1cc(-c2ccc(Cl)c(OC(F)F)c2)cnc1C(F)F [Example 130, 3-[[5-[4-Chloro-3-(difluoromethoxy)phenyl]-2-(difluoromethyl)-3-pyridyl]methyl]oxazolidin-2-one] yielded an IC50 of 30 nM.
For O=C1OCCN1Cc1cc(-c2ccc(F)c(C(F)F)c2)cnc1OC(F)F [Example 131, 3-[[2-(Difluoromethoxy)-5-[3-(difluoromethyl)-4-fluoro-phenyl]-3-pyridyl]methyl]oxazolidin-2-one], the IC50 was 153 nM.
With C[C@@H]1COC(=O)N1Cc1cc(-c2ccc(F)c(C(F)F)c2)cnc1OC(F)F [Example 132, (4R)-3-[[2-(Difluoromethoxy)-5-[3-(difluoromethyl)-4-fluoro-phenyl]-3-pyridyl]methyl]-4-methyl-oxazolidin-2-one] the IC50 was 176 nM.
For O=C1OCCN1Cc1cc(-c2ccc(F)c(OC(F)F)c2)cnc1OC(F)F [Example 133, 3-[[2-(Difluoromethoxy)-5-[3-(difluoromethoxy)-4-fluoro-phenyl]-3-pyridyl]methyl]oxazolidin-2-one], the IC50 was 76 nM.
